Measured values as given in patent publication US6645983B1, “Pharmaceutical compositions comprising 4-quinolones for treating cancers” (Laboratoire L. Lafon, priority 1999, dated 2003).

Key:
[1] = Determination of the maximum tolerated dose (MTD); settings: B6D2F1/Jico, mouse, in vivo, ip; single intraperitoneal administration, doses 2.5 to 160 mg/kg, survival over 14 days
Procedure, shortened: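 Mice were 4- to 6-week-old B6D2F1/Jico. They received a single intraperitoneal dose of 2.5 to 160 mg/kg, and survival and body weight were followed for 14 days. MTD is given in mg/kg and is capped at 160 mg/kg by default.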

SW1088 = experiment: MTT test, cytotoxic activity on non-clonogenic cell lines; assay type: cell-based; settings: Homo sapiens, 10^−5 M, 72 hours of incubation, control condition = 100%, mean value, read-out: mean optical density as percentage of control, SW1088
Procedure, shortened: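 Human astrocytoma SW1088 cells seeded, grown 24 h at 37° C, 5% CO2, then exposed to compounds at 10^−5 to 10^−10 M versus solvent control. Viability by MTT reduction: 3 h MTT incubation, formazan dissolved in DMSO and read by spectrophotometry.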

J82 = experiment: as above; assay type: cell-based; settings: Homo sapiens, 10^−5 M, 72 hours of incubation, control condition = 100%, mean value, read-out: mean optical density as percentage of control, J82
Procedure, shortened: (§1)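 Human bladder cancer lines were seeded at 20 000–50 000 cells/ml and, after 24 h, exposed to compounds at 10^−5 to 10^−10 M against a solvent control. Formazan was dissolved in DMSO and viability was read by spectrophotometric optical density.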

T24 = experiment: as above; assay type: cell-based; settings: Homo sapiens, T-24; 10^−5 M, 72 hours of incubation, control condition = 100%, mean value; read-out: mean optical density as percentage of control, T24
Procedure, shortened: as §1

LoVo = experiment: as above; assay type: cell-based; settings: Homo sapiens, 10^−5 M, 72 hours of incubation, control condition = 100%, mean value, read-out: mean optical density as percentage of control, LoVo
Procedure, shortened: (§2)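 Human cancer lines seeded at 20 000–50 000 cells/ml, allowed 24 h to attach, then exposed to compounds at 10^−5 to 10^−10 M versus solvent control.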

HCT-15 = experiment: as above; assay type: cell-based; settings: Homo sapiens, 10^−5 M, 72 hours of incubation, control condition = 100%, mean value, read-out: mean optical density as percentage of control, HCT-16
Procedure, shortened: as §2

U-87MG = experiment: as above; assay type: cell-based; settings: Homo sapiens, U-87 MG; 10^−5 M, 72 hours of incubation, control condition = 100%, mean value; read-out: mean optical density as percentage of control, U-87MG
Procedure, shortened: as §2

A-427 = experiment: as above; assay type: cell-based; settings: Homo sapiens, 10^−5 M, 72 hours of incubation, control condition = 100%, mean value, read-out: mean optical density as percentage of control, A-427
Procedure, shortened: as §2

U-373MG = experiment: as above; assay type: cell-based; settings: Homo sapiens, U373 MG; 10^−5 M, 72 hours of incubation, control condition = 100%, mean value; read-out: mean optical density as percentage of control, U-373MG
Procedure, shortened: as §2

T-47D = experiment: as above; assay type: cell-based; settings: Homo sapiens, T47D; 10^−5 M, 72 hours of incubation, control condition = 100%, mean value; read-out: mean optical density as percentage of control, T-47D
Procedure, shortened: as §2

PC-3 = experiment: as above; assay type: cell-based; settings: Homo sapiens, 10^−5 M, 72 hours of incubation, control condition = 100%, mean value, read-out: mean optical density as percentage of control, PC-3
Procedure, shortened: as §2

MCF7 = experiment: as above; assay type: cell-based; settings: Homo sapiens, 10^−5 M, 72 hours of incubation, control condition = 100%, mean value, read-out: mean optical density as percentage of control, MCF7
Procedure, shortened: as §2

A549 = experiment: as above; assay type: cell-based; settings: Homo sapiens, 10^−5 M, 72 hours of incubation, control condition = 100%, mean value, read-out: mean optical density as percentage of control, A549
Procedure, shortened: as §2

| SMILES | MTD at 14 day [1] [mg/kg] | viability at 10 µM (SW1088) [%] | viability at 10 µM (J82) [%] | viability at 10 µM (T24) [%] | viability at 10 µM (LoVo) [%] | viability at 10 µM (HCT-15) [%] | viability at 10 µM (U-87MG) [%] | viability at 10 µM (A-427) [%] | viability at 10 µM (U-373MG) [%] | viability at 10 µM (T-47D) [%] | viability at 10 µM (PC-3) [%] | viability at 10 µM (MCF7) [%] | viability at 10 µM (A549) [%] |
| --- | --- | --- | --- | --- | --- | --- | --- | --- | --- | --- | --- | --- | --- |
| COc1ccc(-c2cn(CCN(C)C)c3cc(OC)cc(OC)c3c2=O)cc1 [CRL8350, N-[3-(Dimethylamino)ethyl]-5,7-dimethoxy-3-(4-methoxyphenyl)-1,4-dihydro-4-quinolinone] | > 160 | 101 | 91.5 | 86.9 | 92 | 95.3 | 85.6 | 99.5 | 59.5 | 87.1 | 95.3 | 181 | 93 |
| CCN(CC)C(=O)Cn1cc(-c2ccc(OC)cc2)c(=O)c2c(OC)cc(OC)cc21 [CRL8349, N,N-Diethyl-2-[5,7-dimethoxy-3-(4-methoxyphenyl)-4-oxo-1,4-dihydro-1-quinolinyl]acetamide] | > 160 | 100 | 93.3 | 95.1 | 104 | 91.2 | 98.3 | 90.7 | 66.7 | 91 | 98.6 | 97.4 | 96.2 |
| COc1cc2[nH]cc(-c3ccccc3)c(=O)c2cc1OC [CRL8355, 6,7-Dimethoxy-3-phenyl-1,4-dihydro-4-quinolinone] | > 160 | 97.5 | 94.9 | 89.4 | 98.7 | 99.5 | 94.4 | 103 | 97.7 | 98.5 | 100 | 94.8 | 98.6 |
| COc1ccc(-c2cn(C)c3c(OC)ccc(O)c3c2=O)cc1 [CRL8392, 5-Hydroxy-8-methoxy-3-(4-methoxyphenyl)-1-methyl-1,4-dihydro-4-quinolinone] | > 160 | 89.8 | 70.6 | 63 | 79.7 | 77.4 | 82.7 | 49.7 | 90.2 | 68.6 | 51.6 | 74 | 77.6 |
| CCOC(=O)Cn1cc(-c2ccc(OC)cc2)c(=O)c2c(OC)cc(OC)cc21 [CRL8360, Ethyl 2-[5,7-dimethoxy-3-(4-methoxyphenyl)-4-oxo-1,4-dihydro-1-quinolinyl]acetate] | > 160 | 75.1 | 81.2 | 87.5 | 98.6 | 91.8 | 97.6 | 71.3 | 88 | 82.1 | 81.5 | 95.3 | 85.6 |
| COc1ccc(-c2cn(CCC#N)c3cc(OC)cc(OC)c3c2=O)cc1 [CRL8412, 3-[5,7-Dimethoxy-3-(4-methoxyphenyl)-4-oxo-1,4-dihydro-1-quinolinyl]propanenitrile] | > 160 | 105 | 94.2 | 100 | 77 | 83.6 | 83.4 | 83.7 | 80.8 | 109 | 104 | 99.1 | 84.5 |
